Results from US11793849B2, “Method of Chinese herbal medicine extract used for treating multiple diseases caused by drug resistant bacteria infection” (priority 2016, dated 2023).
≈ marks a conversion by molar mass, not a printed value. Read-outs that look alike come from different tables or passages of the source.

Assays:
[1] = test system: ATCC27853; test: MIC determination, control strain; type: cell-based
Protocol: Determination methods of a Minimal Inhibitory Concentration (MIC) and a Minimum Bactericidal Concentration (MBC) of a test product: the MIC and the MBC of the Pithecellobium clypearia Benth water or ethanol extract to the MDRAB are determined by a microdilution broth method.

[2] = test system: MDRPA; test: Checkerboard assay (combined-use MIC, FIC); type: cell-based, Pseudomonas aeruginosa; conditions: for FIC, all strains / MIC50 of the antibiotic after combined use / MIC90 of the antibiotic after combined use / reduction of the antibiotic's MIC50 vs single use / reduction of the antibiotic's MIC90 vs single use / share of strains with FIC ≤ 0.5: 20 MDRPAs; for combined-use MIC: EA (P. clypearia water extract) combined with LVX
Outline: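 Checkerboard combinations of S20b and antibiotic run per NCCLS method against ESBL E. coli, MDR A. baumannii and MDR P. aeruginosa.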

[3] = test system: MDRPA; test: MIC determination, microdilution broth method;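 further: broth microdilution per NCCLS recommendations, testing Pithecellobium clypearia water or ethanol extracts against multidrug-resistant Pseudomonas aeruginosa, with MIC50 and MIC90 derived statistically from individual MICs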
[4] = antibiotic with 10% ethanol extract
[5] = antibiotic with 60% ethanol extract
[6] = antibiotic with 95% ethanol extract
[7] = antibiotic with EA (water extract)
[8] = 20 MDRPAs, EA = 60% ethanol extract
[9] = 20 MDRPAs, EA = 95% ethanol extract
[10] = MDRPAs P1-P20, single use, EA=P. clypearia 10% ethanol extract
[11] = MDRPAs P1-P20, single use, EA=P. clypearia water extract
[12] = single use, 20 MDRPAs, section of the 10% ethanol extract
[13] = single use, 20 MDRPAs, section of the 60% ethanol extract
[14] = single use, 20 MDRPAs, section of the 95% ethanol extract

In the case of C[C@H]1COc2c(N3CCN(C)CC3)c(F)cc3c(=O)c(C(=O)O)cn1c23 [LVX, Levofloxacin], the MIC ([1]; EA=10% ethanol extract, read-out: MIC) is reported as 1 µg/mL (≈ 2.77 µM), the MIC ([1]; EA=60% ethanol extract, read-out: MIC) is reported as 1 µg/mL (≈ 2.77 µM) and the MIC ([1]; EA=95% ethanol extract, read-out: MIC) is reported as 1 µg/mL (≈ 2.77 µM). It also gave an MIC ([1]; EA=P. clypearia 10% ethanol extract, read-out: MIC (single use)) of 1 µg/mL (≈ 2.77 µM), an MIC ([1]; EA=P. clypearia water extract, read-out: MIC (single use)) of 1 µg/mL (≈ 2.77 µM) and an MIC ([1]; EA=water extract, read-out: MIC) of 1 µg/mL (≈ 2.77 µM). The MIC ([1]; single use, EA = 60% ethanol extract, read-out: MIC) was 1 µg/mL (≈ 2.77 µM), the MIC ([1]; single use, EA = 95% ethanol extract, read-out: MIC) was 1 µg/mL (≈ 2.77 µM) and the “FIC, all strains” value [2, 4] was no more than 2. The “MIC50 of the antibiotic after combined use” value (from here on “MIC50 of the antibiotic”) [2, 4] was 1 µg/mL, the “MIC90 of the antibiotic after combined use” value (from here on “MIC90 of the antibiotic”) [2, 4] was 4 µg/mL and the “reduction of the antibiotic's MIC50 vs single use” value [2, 4] was 75%. The “reduction of the antibiotic's MIC90 vs single use” value [2, 4] was 87.5%, the “share of strains with FIC ≤ 0.5” value [2, 4] was 15% and the “MIC50 of the antibiotic” value [2, 5] was 1 µg/mL. The “MIC90 of the antibiotic” value [2, 5] was 8 µg/mL, the “reduction of the antibiotic's MIC50 vs single use” value [2, 5] was 75% and the “reduction of the antibiotic's MIC90 vs single use” value [2, 5] was 75%. For the same molecule, the “share of strains with FIC ≤ 0.5” value [2, 5] was 10%, the “FIC, all strains” value [2, 6] was no more than 2 and the “MIC50 of the antibiotic” value [2, 6] was 1 µg/mL. For the same molecule, the “MIC90 of the antibiotic” value [2, 6] was 4 µg/mL, the “reduction of the antibiotic's MIC50 vs single use” value [2, 6] was 75% and the “reduction of the antibiotic's MIC90 vs single use” value [2, 6] was 87.5%. For the same molecule, the “share of strains with FIC ≤ 0.5” value [2, 6] was 10%, the “FIC, all strains” value [2, 7] was no more than 2 and the “MIC50 of the antibiotic” value [2, 7] was 1 µg/mL. The “MIC90 of the antibiotic” value [2, 7] was 8 µg/mL, the “reduction of the antibiotic's MIC50 vs single use” value [2, 7] was 75% and the “reduction of the antibiotic's MIC90 vs single use” value [2, 7] was 75%. For the same molecule, the “share of strains with FIC ≤ 0.5” value [2, 7] was 15%, the “combined-use MIC” value ([2]; strain P1) was 4 µg/mL and the “combined-use MIC” value ([2]; strain P2) was 0.03125 µg/mL. The “combined-use MIC” value ([2]; strain P3) was 0.03125 µg/mL, the “combined-use MIC” value ([2]; strain P4) was 4 µg/mL and the “combined-use MIC” value ([2]; strain P5) was 0.03125 µg/mL. The “combined-use MIC” value ([2]; strain P6) was 0.03125 µg/mL, the “combined-use MIC” value ([2]; strain P7) was 0.03125 µg/mL and the “combined-use MIC” value ([2]; strain P8) was 0.03125 µg/mL. For the same molecule, the “combined-use MIC” value ([2]; strain P9) was 2 µg/mL, the “combined-use MIC” value ([2]; strain P10) was 32 µg/mL and the “combined-use MIC” value ([2]; strain P11) was 1 µg/mL. For the same molecule, the “combined-use MIC” value ([2]; strain P12) was 0.5 µg/mL, the “combined-use MIC” value ([2]; strain P13) was 1 µg/mL and the “combined-use MIC” value ([2]; strain P14) was 1 µg/mL. For the same molecule, the “combined-use MIC” value ([2]; strain P15) was 1 µg/mL, the “combined-use MIC” value ([2]; strain P16) was 2 µg/mL and the “combined-use MIC” value ([2]; strain P17) was 4 µg/mL. The “combined-use MIC” value ([2]; strain P18) was 8 µg/mL, the “combined-use MIC” value ([2]; strain P19) was 4 µg/mL and the “combined-use MIC” value ([2]; strain P20) was 1 µg/mL. For the same molecule, the MIC50 [3, 8] was 4 µg/mL (≈ 11.1 µM), the MIC90 [3, 8] was 32 µg/mL (≈ 88.6 µM) and the “MIC Range” value [3, 8] was 0.5 to 128 µg/mL. The MIC50 [3, 9] was 4 µg/mL (≈ 11.1 µM), the MIC90 [3, 9] was 32 µg/mL (≈ 88.6 µM) and the “MIC Range” value [3, 9] was 0.5 to 128 µg/mL. The MIC50 [3, 10] was 4 µg/mL (≈ 11.1 µM), the MIC90 [3, 10] was 32 µg/mL (≈ 88.6 µM) and the “MIC Range” value [3, 10] was 0.5 to 128 µg/mL. The MIC50 [3, 11] was 4 µg/mL (≈ 11.1 µM), the MIC90 [3, 11] was 32 µg/mL (≈ 88.6 µM) and the “MIC Range” value [3, 11] was 0.5 to 128 µg/mL. The MIC50 ([3]; Pseudomonas aeruginosa) was 4 µg/mL (≈ 11.1 µM), the MIC90 ([3]; Pseudomonas aeruginosa) was 32 µg/mL (≈ 88.6 µM) and the MIC ([3]; Pseudomonas aeruginosa, read-out: MIC (single use), strain P1, EA=P. clypearia 10% ethanol extract) was 32 µg/mL (≈ 88.6 µM). For the same molecule, the MIC ([3]; Pseudomonas aeruginosa, read-out: MIC (single use), strain P1, EA=P. clypearia water extract) was 32 µg/mL (≈ 88.6 µM), the MIC ([3]; Pseudomonas aeruginosa, read-out: MIC (single use), strain P2, EA=P. clypearia 10% ethanol extract) was 4 µg/mL (≈ 11.1 µM) and the MIC ([3]; Pseudomonas aeruginosa, read-out: MIC (single use), strain P2, EA=P. clypearia water extract) was 4 µg/mL (≈ 11.1 µM). It also gave an MIC ([3]; Pseudomonas aeruginosa, read-out: MIC (single use), strain P3, EA=P. clypearia 10% ethanol extract) of 8 µg/mL (≈ 22.1 µM), an MIC ([3]; Pseudomonas aeruginosa, read-out: MIC (single use), strain P3, EA=P. clypearia water extract) of 8 µg/mL (≈ 22.1 µM) and an MIC ([3]; Pseudomonas aeruginosa, read-out: MIC (single use), strain P4, EA=P. clypearia 10% ethanol extract) of 8 µg/mL (≈ 22.1 µM). For the same molecule, the MIC ([3]; Pseudomonas aeruginosa, read-out: MIC (single use), strain P4, EA=P. clypearia water extract) was 8 µg/mL (≈ 22.1 µM), the MIC ([3]; Pseudomonas aeruginosa, read-out: MIC (single use), strain P5, EA=P. clypearia 10% ethanol extract) was 1 µg/mL (≈ 2.77 µM) and the MIC ([3]; Pseudomonas aeruginosa, read-out: MIC (single use), strain P5, EA=P. clypearia water extract) was 1 µg/mL (≈ 2.77 µM). It also gave an MIC ([3]; Pseudomonas aeruginosa, read-out: MIC (single use), strain P6, EA=P. clypearia 10% ethanol extract) of 0.5 µg/mL (≈ 1.38 µM), an MIC ([3]; Pseudomonas aeruginosa, read-out: MIC (single use), strain P6, EA=P. clypearia water extract) of 0.5 µg/mL (≈ 1.38 µM) and an MIC ([3]; Pseudomonas aeruginosa, read-out: MIC (single use), strain P7, EA=P. clypearia 10% ethanol extract) of 32 µg/mL (≈ 88.6 µM). The MIC ([3]; Pseudomonas aeruginosa, read-out: MIC (single use), strain P7, EA=P. clypearia water extract) was 32 µg/mL (≈ 88.6 µM), the MIC ([3]; Pseudomonas aeruginosa, read-out: MIC (single use), strain P8, EA=P. clypearia 10% ethanol extract) was 1 µg/mL (≈ 2.77 µM) and the MIC ([3]; Pseudomonas aeruginosa, read-out: MIC (single use), strain P8, EA=P. clypearia water extract) was 1 µg/mL (≈ 2.77 µM). The MIC ([3]; Pseudomonas aeruginosa, read-out: MIC (single use), strain P9, EA=P. clypearia 10% ethanol extract) was 4 µg/mL (≈ 11.1 µM), the MIC ([3]; Pseudomonas aeruginosa, read-out: MIC (single use), strain P9, EA=P. clypearia water extract) was 4 µg/mL (≈ 11.1 µM) and the MIC ([3]; Pseudomonas aeruginosa, read-out: MIC (single use), strain P10, EA=P. clypearia 10% ethanol extract) was 128 µg/mL (≈ 354 µM). For the same molecule, the MIC ([3]; Pseudomonas aeruginosa, read-out: MIC (single use), strain P10, EA=P. clypearia water extract) was 128 µg/mL (≈ 354 µM), the MIC ([3]; Pseudomonas aeruginosa, read-out: MIC (single use), strain P11, EA=P. clypearia 10% ethanol extract) was 2 µg/mL (≈ 5.53 µM) and the MIC ([3]; Pseudomonas aeruginosa, read-out: MIC (single use), strain P11, EA=P. clypearia water extract) was 2 µg/mL (≈ 5.53 µM). For the same molecule, the MIC ([3]; Pseudomonas aeruginosa, read-out: MIC (single use), strain P12, EA=P. clypearia 10% ethanol extract) was 1 µg/mL (≈ 2.77 µM), the MIC ([3]; Pseudomonas aeruginosa, read-out: MIC (single use), strain P12, EA=P. clypearia water extract) was 1 µg/mL (≈ 2.77 µM) and the MIC ([3]; Pseudomonas aeruginosa, read-out: MIC (single use), strain P13, EA=P. clypearia 10% ethanol extract) was 2 µg/mL (≈ 5.53 µM). The MIC ([3]; Pseudomonas aeruginosa, read-out: MIC (single use), strain P13, EA=P. clypearia water extract) was 2 µg/mL (≈ 5.53 µM), the MIC ([3]; Pseudomonas aeruginosa, read-out: MIC (single use), strain P14, EA=P. clypearia 10% ethanol extract) was 32 µg/mL (≈ 88.6 µM) and the MIC ([3]; Pseudomonas aeruginosa, read-out: MIC (single use), strain P14, EA=P. clypearia water extract) was 32 µg/mL (≈ 88.6 µM). It also gave an MIC ([3]; Pseudomonas aeruginosa, read-out: MIC (single use), strain P15, EA=P. clypearia 10% ethanol extract) of 2 µg/mL (≈ 5.53 µM), an MIC ([3]; Pseudomonas aeruginosa, read-out: MIC (single use), strain P15, EA=P. clypearia water extract) of 2 µg/mL (≈ 5.53 µM) and an MIC ([3]; Pseudomonas aeruginosa, read-out: MIC (single use), strain P16, EA=P. clypearia 10% ethanol extract) of 32 µg/mL (≈ 88.6 µM). It also gave an MIC ([3]; Pseudomonas aeruginosa, read-out: MIC (single use), strain P16, EA=P. clypearia water extract) of 32 µg/mL (≈ 88.6 µM), an MIC ([3]; Pseudomonas aeruginosa, read-out: MIC (single use), strain P17, EA=P. clypearia 10% ethanol extract) of 4 µg/mL (≈ 11.1 µM) and an MIC ([3]; Pseudomonas aeruginosa, read-out: MIC (single use), strain P17, EA=P. clypearia water extract) of 4 µg/mL (≈ 11.1 µM). It also gave an MIC ([3]; Pseudomonas aeruginosa, read-out: MIC (single use), strain P18, EA=P. clypearia 10% ethanol extract) of 4 µg/mL (≈ 11.1 µM), an MIC ([3]; Pseudomonas aeruginosa, read-out: MIC (single use), strain P18, EA=P. clypearia water extract) of 4 µg/mL (≈ 11.1 µM) and an MIC ([3]; Pseudomonas aeruginosa, read-out: MIC (single use), strain P19, EA=P. clypearia 10% ethanol extract) of 16 µg/mL (≈ 44.3 µM). For the same molecule, the MIC ([3]; Pseudomonas aeruginosa, read-out: MIC (single use), strain P19, EA=P. clypearia water extract) was 16 µg/mL (≈ 44.3 µM), the MIC ([3]; Pseudomonas aeruginosa, read-out: MIC (single use), strain P20, EA=P. clypearia 10% ethanol extract) was 4 µg/mL (≈ 11.1 µM) and the MIC ([3]; Pseudomonas aeruginosa, read-out: MIC (single use), strain P20, EA=P. clypearia water extract) was 4 µg/mL (≈ 11.1 µM). It also gave an MIC50 [3, 12] of 4 µg/mL (≈ 11.1 µM), an MIC90 [3, 12] of 32 µg/mL (≈ 88.6 µM) and an MIC50 [3, 13] of 4 µg/mL (≈ 11.1 µM). The MIC90 [3, 13] was 32 µg/mL (≈ 88.6 µM), the MIC50 [3, 14] was 4 µg/mL (≈ 11.1 µM) and the MIC90 [3, 14] was 32 µg/mL (≈ 88.6 µM).
